How the values were obtained:
bedstraw = test: Test B pre/postemergence bedstraw; format: in vivo, Galium aparine; details: Postemergence
Procedure, shortened: (§1)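 Test chemicals in a non-phytotoxic solvent mixture with surfactant were sprayed preemergence onto planted seeds and postemergence onto plants 2 to 18 cm tall (1- to 4-leaf stage). After twelve to sixteen days in a greenhouse, injury was visually rated against untreated controls from 0 (no effect) to 10 (complete control).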

blackgrass = test: Test B pre/postemergence blackgrass; format: in vivo, Alopecurus myosuroides
Procedure, shortened: as §1

surinam grass = test: Test B pre/postemergence surinam grass; format: in vivo, Brachiaria decumbens
Procedure, shortened: as §1

cocklebur = test: Test B pre/postemergence cocklebur; format: in vivo, Xanthium strumarium
Procedure, shortened: as §1

corn = test: Test B pre/postemergence corn; format: in vivo, Zea mays
Procedure, shortened: as §1

giant foxtail = test: Test B pre/postemergence giant foxtail; format: in vivo, Setaria faberii
Procedure, shortened: as §1

morningglory = test: Test B pre/postemergence morningglory; format: in vivo, Ipomoea hederacea
Procedure, shortened: as §1

pigweed = test: Test B pre/postemergence pigweed; format: in vivo, Amaranthus retroflexus
Procedure, shortened: as §1

rape = test: Test B pre/postemergence rape; format: in vivo, Brassica napus
Procedure, shortened: as §1

soybean = test: Test B pre/postemergence soybean; format: in vivo, Glycine max
Procedure, shortened: as §1

sugar beet = test: Test B pre/postemergence sugar beet; format: in vivo, Beta vulgaris
Procedure, shortened: as §1

velvetleaf = test: Test B pre/postemergence velvetleaf; format: in vivo, Abutilon theophrasti
Procedure, shortened: as §1

wheat = test: Test B pre/postemergence wheat; format: in vivo, Triticum aestivum
Procedure, shortened: as §1

wild oat = test: Test B pre/postemergence wild oat; format: in vivo, Avena fatua
Procedure, shortened: as §1

rice = test: Test B flood test rice; format: in vivo, Oryza sativa
Procedure, shortened: (§2)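 Each value is a visual injury score relative to controls, with 10 meaning complete control and 0 no effect. Evaluation took place twelve to sixteen days after the 2-leaf-stage plants were treated and kept in the greenhouse.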

smallflower flatsedge = test: Test B flood test smallflower flatsedge; format: in vivo, Cyperus difformis
Procedure, shortened: as §2

[1] = Rate 500 g/ha, scale of 0 to 10 where 0 is no effect and 10 is complete control
[2] = Rate 125 g/ha, scale 0 to 10, 0 is no effect, 10 is complete control
[3] = Postemergence, Rate 250 g/ha, scale 0 to 10
[4] = Postemergence, Rate 500 g/ha, scale of 0 to 10 where 0 is no effect and 10 is complete control
[5] = Preemergence, Rate 62 g/ha, scale 0 to 10 (0 no effect, 10 complete control)
[6] = Preemergence, Rate 125 g/ha, scale of 0 to 10 where 0 is no effect and 10 is complete control
[7] = Preemergence, Rate 250 g/ha, scale 0 to 10, 0 is no effect, 10 is complete control
[8] = Preemergence, Rate 500 g/ha, scale 0 to 10, 0 is no effect, 10 is complete control
[9] = Rate 62 g/ha, Postemergence, scale of 0 to 10 where 0 is no effect and 10 is complete control
[10] = Rate 125 g/ha, Postemergence, scale 0 to 10, 0 is no effect, 10 is complete control
[11] = Postemergence, Rate 250 g/ha, scale 0 to 10, 0 no effect, 10 complete control
[12] = Postemergence block (flood test species), Rate 250 g/ha, scale 0 to 10
[13] = Postemergence section (flood test species), Rate 500 g/ha, scale of 0 to 10 where 0 is no effect and 10 is complete control
[14] = Rate 125 g/ha, Postemergence section (flood test species), scale 0 to 10, 0 is no effect, 10 is complete control

SMILES: CC(C)N(C(=O)n1oc(=O)n(CC2=NOCCC2)c1=O)c1ccccc1 [Compound 430]
- Bedstraw plant response rating (bedstraw; Rate 250 g/ha, scale 0 to 10): 0
- Bedstraw plant response rating (bedstraw; [1]): 3
- Bedstraw plant response rating (bedstraw; [2]): 0
- Blackgrass plant response rating (blackgrass; [3]): 7
- Blackgrass plant response rating (blackgrass; [4]): 8
- Plant response rating, Blackgrass (blackgrass; [5]): 0
- Plant response rating, Blackgrass (blackgrass; [6]): 3
- Blackgrass plant response rating (blackgrass; [7]): 7
- Blackgrass plant response rating (blackgrass; [8]): 9
- Blackgrass plant response rating (blackgrass; [9]): 2
- Blackgrass plant response rating (blackgrass; [10]): 3
- B. signalgrass plant response rating (surinam grass; [11]): 6
- B. signalgrass plant response rating (surinam grass; [4]): 8
- Plant response rating, B. signalgrass (surinam grass; [5]): 1
- Plant response rating, B. signalgrass (surinam grass; [6]): 2
- B. signalgrass plant response rating (surinam grass; [7]): 3
- B. signalgrass plant response rating (surinam grass; [8]): 3
- B. signalgrass plant response rating (surinam grass; [9]): 0
- B. signalgrass plant response rating (surinam grass; [10]): 1
- Cocklebur plant response rating (cocklebur; [3]): 0
- Cocklebur plant response rating (cocklebur; [4]): 1
- Plant response rating, Cocklebur (cocklebur; [5]): 0
- Plant response rating, Cocklebur (cocklebur; [6]): 0
- Cocklebur plant response rating (cocklebur; [7]): 0
- Cocklebur plant response rating (cocklebur; [8]): 0
- Cocklebur plant response rating (cocklebur; [9]): 0
- Cocklebur plant response rating (cocklebur; [10]): 0
- Corn plant response rating (corn; [3]): 2
- Corn plant response rating (corn; [4]): 4
- Plant response rating, Corn (corn; [5]): 0
- Plant response rating, Corn (corn; [6]): 0
- Corn plant response rating (corn; [7]): 0
- Corn plant response rating (corn; [8]): 2
- Corn plant response rating (corn; [9]): 0
- Corn plant response rating (corn; [10]): 0
- Giant foxtail plant response rating (giant foxtail; [3]): 9
- Giant foxtail plant response rating (giant foxtail; [4]): 9
- Plant response rating, Giant foxtail (giant foxtail; [5]): 10
- Plant response rating, Giant foxtail (giant foxtail; [6]): 10
- Giant foxtail plant response rating (giant foxtail; [7]): 10
- Giant foxtail plant response rating (giant foxtail; [8]): 10
- Giant foxtail plant response rating (giant foxtail; [9]): 6
- Giant foxtail plant response rating (giant foxtail; [10]): 8
- Morningglory plant response rating (morningglory; [3]): 3
- Morningglory plant response rating (morningglory; [4]): 3
- Plant response rating, Morningglory (morningglory; [5]): 0
- Plant response rating, Morningglory (morningglory; [6]): 0
- Morningglory plant response rating (morningglory; [7]): 0
- Morningglory plant response rating (morningglory; [8]): 0
- Morningglory plant response rating (morningglory; [10]): 2
- Redroot pigweed plant response rating (pigweed; [3]): 3
- Redroot pigweed plant response rating (pigweed; [4]): 3
- Plant response rating, Redroot pigweed (pigweed; [5]): 0
- Plant response rating, Redroot pigweed (pigweed; [6]): 0
- Redroot pigweed plant response rating (pigweed; [7]): 2
- Redroot pigweed plant response rating (pigweed; [8]): 7
- Redroot pigweed plant response rating (pigweed; [10]): 2
- Rape plant response rating (rape; [3]): 0
- Rape plant response rating (rape; [4]): 0
- Plant response rating, Rape (rape; [5]): 0
- Plant response rating, Rape (rape; [6]): 0
- Rape plant response rating (rape; [7]): 0
- Rape plant response rating (rape; [8]): 4
- Rape plant response rating (rape; [10]): 0
- Soybean plant response rating (soybean; [3]): 3
- Soybean plant response rating (soybean; [4]): 3
- Plant response rating, Soybean (soybean; [5]): 0
- Plant response rating, Soybean (soybean; [6]): 0
- Soybean plant response rating (soybean; [7]): 0
- Soybean plant response rating (soybean; [8]): 0
- Soybean plant response rating (soybean; [10]): 1
- Sugarbeets plant response rating (sugar beet; [3]): 0
- Sugarbeets plant response rating (sugar beet; [4]): 0
- Plant response rating, Sugarbeets (sugar beet; [5]): 0
- Plant response rating, Sugarbeets (sugar beet; [6]): 0
- Sugarbeets plant response rating (sugar beet; [7]): 0
- Sugarbeets plant response rating (sugar beet; [8]): 0
- Sugarbeets plant response rating (sugar beet; [10]): 0
- Velvetleaf plant response rating (velvetleaf; [3]): 0
- Velvetleaf plant response rating (velvetleaf; [4]): 3
- Plant response rating, Velvetleaf (velvetleaf; [5]): 0
- Plant response rating, Velvetleaf (velvetleaf; [6]): 2
- Velvetleaf plant response rating (velvetleaf; [7]): 4
- Velvetleaf plant response rating (velvetleaf; [8]): 7
- Velvetleaf plant response rating (velvetleaf; [10]): 0
- Wheat plant response rating (wheat; [3]): 0
- Wheat plant response rating (wheat; [4]): 0
- Plant response rating, Wheat (wheat; [5]): 0
- Plant response rating, Wheat (wheat; [6]): 0
- Wheat plant response rating (wheat; [7]): 0
- Wheat plant response rating (wheat; [8]): 5
- Wheat plant response rating (wheat; [10]): 0
- Wild oats plant response rating (wild oat; [3]): 0
- Wild oats plant response rating (wild oat; [4]): 0
- Plant response rating, Wild oats (wild oat; [5]): 0
- Plant response rating, Wild oats (wild oat; [6]): 0
- Wild oats plant response rating (wild oat; [7]): 3
- Wild oats plant response rating (wild oat; [8]): 3
- Wild oats plant response rating (wild oat; [10]): 0
- Rice plant response rating (rice; [12]): 0
- Rice plant response rating (rice; [13]): 0
- Rice plant response rating (rice; [14]): 0
- S. Flatsedge plant response rating (smallflower flatsedge; [12]): 0
- S. Flatsedge plant response rating (smallflower flatsedge; [13]): 0
- S. Flatsedge plant response rating (smallflower flatsedge; [14]): 0

SMILES: CC(C)N(C(=O)n1oc(=O)n(CCC#N)c1=O)c1ccc(F)cc1F [Compound 433]
- Bedstraw plant response rating (bedstraw; Rate 250 g/ha, scale 0 to 10): 5
- Bedstraw plant response rating (bedstraw; [1]): 7
- Bedstraw plant response rating (bedstraw; [2]): 2
- Blackgrass plant response rating (blackgrass; [3]): 7
- Blackgrass plant response rating (blackgrass; [4]): 10
- Plant response rating, Blackgrass (blackgrass; [5]): 2
- Plant response rating, Blackgrass (blackgrass; [6]): 2
- Blackgrass plant response rating (blackgrass; [7]): 3
- Blackgrass plant response rating (blackgrass; [8]): 9
- Blackgrass plant response rating (blackgrass; [9]): 2
- Blackgrass plant response rating (blackgrass; [10]): 5
- B. signalgrass plant response rating (surinam grass; [11]): 3
- B. signalgrass plant response rating (surinam grass; [4]): 6
- Plant response rating, B. signalgrass (surinam grass; [5]): 2
- Plant response rating, B. signalgrass (surinam grass; [6]): 2
- B. signalgrass plant response rating (surinam grass; [7]): 2
- B. signalgrass plant response rating (surinam grass; [8]): 6
- B. signalgrass plant response rating (surinam grass; [9]): 0
- B. signalgrass plant response rating (surinam grass; [10]): 1
- Cocklebur plant response rating (cocklebur; [3]): 0
- Cocklebur plant response rating (cocklebur; [4]): 0
- Plant response rating, Cocklebur (cocklebur; [5]): 0
- Plant response rating, Cocklebur (cocklebur; [6]): 0
- Cocklebur plant response rating (cocklebur; [7]): 2
- Cocklebur plant response rating (cocklebur; [8]): 3
- Cocklebur plant response rating (cocklebur; [9]): 0
- Cocklebur plant response rating (cocklebur; [10]): 0
- Corn plant response rating (corn; [3]): 0
- Corn plant response rating (corn; [4]): 3
- Plant response rating, Corn (corn; [5]): 0
- Plant response rating, Corn (corn; [6]): 0
- Corn plant response rating (corn; [7]): 0
- Corn plant response rating (corn; [8]): 0
- Corn plant response rating (corn; [9]): 0
- Corn plant response rating (corn; [10]): 0
- Giant foxtail plant response rating (giant foxtail; [3]): 6
- Giant foxtail plant response rating (giant foxtail; [4]): 8
- Plant response rating, Giant foxtail (giant foxtail; [5]): 10
- Plant response rating, Giant foxtail (giant foxtail; [6]): 10
- Giant foxtail plant response rating (giant foxtail; [7]): 10
- Giant foxtail plant response rating (giant foxtail; [8]): 10
- Giant foxtail plant response rating (giant foxtail; [9]): 4
- Giant foxtail plant response rating (giant foxtail; [10]): 4
- Morningglory plant response rating (morningglory; [3]): 4
- Morningglory plant response rating (morningglory; [4]): 7
- Plant response rating, Morningglory (morningglory; [5]): 0
- Plant response rating, Morningglory (morningglory; [6]): 0
- Morningglory plant response rating (morningglory; [7]): 2
- Morningglory plant response rating (morningglory; [8]): 3
- Morningglory plant response rating (morningglory; [10]): 2
- Redroot pigweed plant response rating (pigweed; [3]): 2
- Redroot pigweed plant response rating (pigweed; [4]): 3
- Plant response rating, Redroot pigweed (pigweed; [5]): 0
- Plant response rating, Redroot pigweed (pigweed; [6]): 4
- Redroot pigweed plant response rating (pigweed; [7]): 7
- Redroot pigweed plant response rating (pigweed; [8]): 10
- Redroot pigweed plant response rating (pigweed; [10]): 0
- Rape plant response rating (rape; [3]): 0
- Rape plant response rating (rape; [4]): 0
- Plant response rating, Rape (rape; [5]): 0
- Plant response rating, Rape (rape; [6]): 0
- Rape plant response rating (rape; [7]): 3
- Rape plant response rating (rape; [8]): 7
- Rape plant response rating (rape; [10]): 0
- Soybean plant response rating (soybean; [3]): 2
- Soybean plant response rating (soybean; [4]): 2
- Plant response rating, Soybean (soybean; [5]): 0
- Plant response rating, Soybean (soybean; [6]): 0
- Soybean plant response rating (soybean; [7]): 0
- Soybean plant response rating (soybean; [8]): 0
- Soybean plant response rating (soybean; [10]): 2
- Sugarbeets plant response rating (sugar beet; [3]): 0
- Sugarbeets plant response rating (sugar beet; [4]): 0
- Plant response rating, Sugarbeets (sugar beet; [5]): 0
- Plant response rating, Sugarbeets (sugar beet; [6]): 2
- Sugarbeets plant response rating (sugar beet; [7]): 4
- Sugarbeets plant response rating (sugar beet; [8]): 8
- Sugarbeets plant response rating (sugar beet; [10]): 0
- Velvetleaf plant response rating (velvetleaf; [3]): 2
- Velvetleaf plant response rating (velvetleaf; [4]): 4
- Plant response rating, Velvetleaf (velvetleaf; [5]): 2
- Plant response rating, Velvetleaf (velvetleaf; [6]): 2
- Velvetleaf plant response rating (velvetleaf; [7]): 4
- Velvetleaf plant response rating (velvetleaf; [8]): 6
- Velvetleaf plant response rating (velvetleaf; [10]): 0
- Wheat plant response rating (wheat; [3]): 0
- Wheat plant response rating (wheat; [4]): 3
- Plant response rating, Wheat (wheat; [5]): 0
- Plant response rating, Wheat (wheat; [6]): 0
- Wheat plant response rating (wheat; [7]): 0
- Wheat plant response rating (wheat; [8]): 2
- Wheat plant response rating (wheat; [10]): 0
- Wild oats plant response rating (wild oat; [3]): 0
- Wild oats plant response rating (wild oat; [4]): 2
- Plant response rating, Wild oats (wild oat; [5]): 2
- Plant response rating, Wild oats (wild oat; [6]): 6
- Wild oats plant response rating (wild oat; [7]): 6
- Wild oats plant response rating (wild oat; [8]): 8
- Wild oats plant response rating (wild oat; [10]): 0
- Rice plant response rating (rice; [12]): 0
- Rice plant response rating (rice; [13]): 0
- Rice plant response rating (rice; [14]): 0
- S. Flatsedge plant response rating (smallflower flatsedge; [12]): 0
- S. Flatsedge plant response rating (smallflower flatsedge; [13]): 0
- S. Flatsedge plant response rating (smallflower flatsedge; [14]): 0

— patent US6737383B1, “Herbicidal oxadiazolidines” (priority 1999, dated 2004)
